Results published in patent EP0807626A1, “N-HYDROXYUREA DERIVATIVES” (Nikken Chemicals Company, Limited, priority 1995, dated 1996).

How the values were obtained:
thromboxane synthase = target: T1, thromboxane synthase (Homo sapiens, UniProt P24557); experiment: Test of thromboxane synthase inhibitory action (production of thromboxane B2 in human platelet microsomes); assay type: biochemical; details: suppressing production of thromboxane (thromboxane B2), prostaglandin H2, EIA, read-out: TxSI IC50
T1 construct: containing human platelet microsomes (50 µg protein/ml) and the test compound; from tissue; host or cells: human platelet microsomes
T1 sequence (P24557 1-533): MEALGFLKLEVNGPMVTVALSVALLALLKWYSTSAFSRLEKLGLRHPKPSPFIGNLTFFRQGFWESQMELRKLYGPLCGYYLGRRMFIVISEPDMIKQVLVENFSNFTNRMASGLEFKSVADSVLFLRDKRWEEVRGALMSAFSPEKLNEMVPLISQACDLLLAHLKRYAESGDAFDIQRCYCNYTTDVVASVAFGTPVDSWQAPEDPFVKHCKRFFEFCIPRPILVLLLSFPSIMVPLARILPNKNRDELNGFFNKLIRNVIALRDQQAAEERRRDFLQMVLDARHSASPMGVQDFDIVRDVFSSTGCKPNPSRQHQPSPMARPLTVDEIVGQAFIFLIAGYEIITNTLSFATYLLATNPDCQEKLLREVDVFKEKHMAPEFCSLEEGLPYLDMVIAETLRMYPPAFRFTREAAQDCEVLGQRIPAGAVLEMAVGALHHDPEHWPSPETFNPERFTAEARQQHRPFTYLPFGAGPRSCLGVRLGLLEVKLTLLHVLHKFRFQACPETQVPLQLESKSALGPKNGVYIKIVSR
Method: Human platelet microsomes were used and a test of the thromboxane synthase inhibitory activity of the compounds was determined by the amount of production of thromboxane B2 as the thromboxane A2 stable metabdite.
[…] A reaction was initiated to added prostaglandin H2 (100 ng/2 µl), and terminated with 1N hydrocloric acid. Then neutralized by 1M Tris-base, and centrifuged at 3000 rpm for 20 minutes. The content of the thromboxane B2 in the supernatent was measured by the EIA method (Cayman Co. kit).
As the test compound, the same compounds as in Test Example 1 were used.

lipoxygenase = target: T2, lipoxygenase (Rattus norvegicus, UniProt P12527); experiment: Test of lipoxygenase inhibitory action (production of leukotriene B4 in rat polymorphonuclear leukocytes); assay type: cell-based; details: inhibiting the production of leukotriene B4, calcium ionophore A-23187, EIA, read-out: LTBI IC50
T2 construct: the peritoneal cavities were lavaged and the polymorphonuclear leukocytes were recovered; endogenous in cells; host or cells: casein-elicited peritoneal polymorphonuclear leukocytes of Wistar male rats
T2 sequence (P12527 1-673): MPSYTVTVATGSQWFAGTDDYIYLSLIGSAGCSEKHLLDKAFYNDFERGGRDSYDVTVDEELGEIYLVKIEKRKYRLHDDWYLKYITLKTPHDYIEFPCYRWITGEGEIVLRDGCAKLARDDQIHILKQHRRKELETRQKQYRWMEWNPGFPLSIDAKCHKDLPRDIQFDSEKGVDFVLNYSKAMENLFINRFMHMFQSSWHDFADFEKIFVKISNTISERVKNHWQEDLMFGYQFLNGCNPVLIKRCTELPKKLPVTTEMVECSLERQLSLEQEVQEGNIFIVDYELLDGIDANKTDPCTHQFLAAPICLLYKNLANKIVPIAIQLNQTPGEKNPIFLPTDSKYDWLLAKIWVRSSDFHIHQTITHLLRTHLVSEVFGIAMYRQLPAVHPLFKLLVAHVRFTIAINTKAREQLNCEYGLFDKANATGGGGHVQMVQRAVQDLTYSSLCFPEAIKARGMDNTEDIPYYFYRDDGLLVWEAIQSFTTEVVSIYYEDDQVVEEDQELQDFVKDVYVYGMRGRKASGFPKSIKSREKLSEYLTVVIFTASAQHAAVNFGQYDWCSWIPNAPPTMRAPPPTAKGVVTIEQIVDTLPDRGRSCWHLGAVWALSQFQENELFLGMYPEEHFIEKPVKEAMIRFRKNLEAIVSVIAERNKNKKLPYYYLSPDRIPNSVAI
Method: Using rat polymorphonuclear leukocytes, a test of the lipoxygenase inhibitory activity of the test compounds was determined the amount of production of leukotriene B4.
Wistar male rats (Japan Clea) were intraperitoneally administered with 12% sodium casein. After 16 hours, the peritoneal cavities were lavaged and the polymorphonuclear leukocytes were recovered. The obtained polymorphonuclear leukocytes were suspended in a phosphate buffer (137 mM NaCl, 3 mM KCl, 8 mM Na2HPO4, 2 mM KH2PO4) (2.5 × 10^5 cells/0.4 ml), then the incubation was carried out at 37°C for 10 minutes the test compound (final concentration 10^-5M) was added and then for 5 minutes after a calcium solution (10 mM CaCl2, 0.86% NaCl) 0.1 ml was added, then 1.25 µl of calcium ionophore (20 µM, A-23187) was added and the reaction started. Five minutes after the addition, 250 µl of methanol was added to stop the reaction. After the reaction was stopped, the resultant mixture was centrifuged for 20 minutes (4°C, 3000 rpm), then the amount of leukotriene B4 in the supernatant was measured by the EIA method (Cayman Co. kit).
As the test compound, the above mentioned Compound 1 to Compound 4, Compound 9 to Compound 11, Compound 22 to Compound 26, Compound 28, Compound 29, compound 32, Compound 33, and Compound 40 to Compound 48 were used.

[1] = tested on: antigen-induced bronchoconstriction; experiment: Antigen-induced bronchoconstriction model of guinea pig (Konzett-Rossler method); assay type: in vivo; details: Cavia porcellus, po, 1 h; guinea pigs sensitized by ovalbumin, orally administered, one hour after administration; read-out: Suppression of Respiratory Constriction (ED50: mg/kg)
Method: Guinea pigs sensitized by ovalbumin were used and orally administered with the test compound suspended in 5% gum arabic. The activity for suppressing antigen-induced bronchoconstriction after one hour after administration was measured by the Konzett-Rossler method.
Each of the sensitized guinea pigs was anesthesized by 35 mg/kg pentobarbital, a airway cannula was inserted into the trachea and connected to an artificial respirator and transducer, a vein cannula was inserted into the jugular vein, and treatment was performed by 5 mg/kg soxamethonium and 5 mg/kg mepyramine. Next, the guinea pig was inhaled a nebulized ovalbumin to cause bronchoconstriction and the activity in suppressing bronchoconstriction was found from the ratio of the amount of overflow volume to the detector to the amount of air blown volume from the artificial respirator.
As the test compound, the Compound 7 was used. […]

Compound | IC50 (thromboxane synthase) [nM] | IC50 (lipoxygenase) [nM] | ED50 [1] [mg/kg]
NC(=O)N(O)CCCCC/C=C(/c1ccccc1)c1cccnc1 [Compound 2, N-hydroxy-N-[(Z)-7-phenyl-7-(3-pyridyl)-6-hepten-1-yl]urea] | 20 | 60 | –
O=C(NC1CCCCC1)N(O)CCCCC/C=C(/c1ccccc1)c1cccnc1 [Compound 3, N'-cyclohexyl-N-hydroxy-N-[(Z)-7-phenyl-7-(3-pyridyl)-6-hepten-1-yl]urea] | 9 | 50 | –
NC(=O)N(O)CCCC(c1ccccc1)c1cccnc1 (centres unmarked) [Compound 7, N-hydroxy-N-[4-phenyl-4-(3-pyridyl)butyl]urea] | – | – | 70
NC(=O)N(O)CCCCCCC(c1ccccc1)c1cccnc1 (centres unmarked) [Compound 24, N-hydroxy-N-[7-phenyl-7-(3-pyridyl)heptyl]urea] | 10 | 80 | –
CC(CCCCCCCC(c1ccccc1)c1cccnc1)N(O)C(=S)NC1CCCCC1 (centres unmarked) [Compound 32, N'-cyclohexyl-N-hydroxy-N-[1-methyl-9-phenyl-9-(3-pyridyl)nonyl]thiourea] | 9 | 100 | –
NC(=O)N(O)CCCCCCCCCC(c1ccccc1)c1cccnc1 (centres unmarked) [Compound 33, N-hydroxy-N-[10-phenyl-10-(3-pyridyl)decyl]urea] | 10 | 10 | –
NC(=O)N(O)C/C=C/CCCC(c1ccccc1)c1cccnc1 (centres unmarked) [Compound 40, N-hydroxy-N-[(E)-7-phenyl-7-(3-pyridyl)-2-hepten-1-yl]urea] | 30 | 200 | –
NC(=O)N(O)Cc1cccc(OC(c2ccccc2)c2cccnc2)c1 (stereo not drawn) [Compound 42, N-hydroxy-N-[3-[α-(3-pyridyl)benzyloxy]benzyl]urea] | 60 | 300 | –
NC(=O)N(O)Cc1ccc(OC(c2ccccc2)c2cccnc2)cc1 (stereo not drawn) [Compound 43, N-hydroxy-N-[4-[α-(3-pyridyl)benzyloxy]benzyl]urea] | 50 | 500 | –
CC(c1cccc(OC(c2ccccc2)c2cccnc2)c1)N(O)C(N)=O (stereo not drawn) [Compound 46, N-hydroxy-N-[3-[α-(3-pyridyl)benzyloxy]-α-methylbenzyl]urea] | 9 | 1000 | –
NC(=O)N(O)Cc1cccc(CC(c2ccccc2)c2cccnc2)c1 (stereo not drawn) [Compound 47, N-hydroxy-N-[3-[β-(3-pyridyl)phenethyl]benzyl]urea] | 20 | 300 | –
CC(c1cccc(CC(c2ccccc2)c2cccnc2)c1)N(O)C(N)=O (stereo not drawn) [Compound 48, N-hydroxy-N-[3-[β-(3-pyridyl)phenethyl]-α-methylbenzyl]urea] | 30 | 800 | –
CC(c1cc2ccccc2s1)N(O)C(N)=O (centres unmarked) [Compound A-64077] | – | – | 300
O=C(O)/C=C/c1ccc(Cn2ccnc2)cc1 [OKY-046] | – | – | 260

Second part, led by results:

IC50 (thromboxane synthase) [nM] | IC50 (lipoxygenase) [nM] | Compound | ED50 [1] [mg/kg]
0.9 | 400 | NC(=O)N(O)CCCCC/C=C(\c1ccccc1)c1cccnc1 [Compound 1, N-hydroxy-N-[(E)-7-phenyl-7-(3-pyridyl)-6-hepten-1-yl]urea] | –
6 | 2000 | NC(=O)N(O)CCC=C(c1cccnc1)c1cccc(C(F)(F)F)c1 [Compound 4, N-hydroxy-N-[4-(3-pyridyl)-4-(3-trifluoromethylphenyl)-3-buten-1-yl] urea] | –
0.3 | 1000 | O=C(NC1CCCCC1)N(O)CCCC(c1ccccc1)c1cccnc1 (centres unmarked) [Compound 9, N'-cyclohexyl-N-hydroxy-N-[4-phenyl-4-(3-pyridyl)butyl]urea] | –
0.9 | 300 | ON(CCCC(c1ccccc1)c1cccnc1)C(=S)NC1CCCCC1 (centres unmarked) [Compound 10, N'-cyclohexyl-N-hydroxy-N-[4-phenyl-4-(3-pyridyl)butyl]thiourea] | –
2 | 500 | COc1cccc(NC(=O)N(O)CCCC(c2ccccc2)c2cccnc2)c1 (centres unmarked) [Compound 11, N-hydroxy-N'-(3-methoxyphenyl)-N-[4-phenyl-4-(3-pyridyl)butyl]urea] | –
4 | 200 | NC(=S)N(O)CCCCCC(c1ccccc1)c1cccnc1 (centres unmarked) [Compound 22, N-hydroxy-N-[6-phenyl-6-(3-pyridyl)hexyl]thiourea] | –
6 | 200 | CCNC(=O)N(O)CCCCCC(c1ccccc1)c1cccnc1 (centres unmarked) [Compound 23, N'-ethyl-N-hydroxy-N-[6-phenyl-6-(3-pyridyl)hexyl]urea] | –
5 | 60 | O=C(NC1CCCCC1)N(O)CCCCCCC(c1ccccc1)c1cccnc1 (centres unmarked) [Compound 25, N'-cyclohexyl-N-hydroxy-N-[7-phenyl-7-(3-pyridyl)heptyl]urea] | –
2 | 40 | COc1cccc(NC(=O)N(O)CCCCCCC(c2ccccc2)c2cccnc2)c1 (centres unmarked) [Compound 26, N-hydroxy-N'-(3-methoxyphenyl)-N-[7-phenyl-7-(3-pyridyl)heptyl]urea] | –
7 | 100 | CC(CCCCCC(c1ccccc1)c1cccnc1)N(O)C(N)=O (centres unmarked) [Compound 28, N-hydroxy-N-[1-methyl-7-phenyl-7-(3-pyridyl)heptyl]urea] | –
2 | 40 | ON(CCCCCCCC(c1ccccc1)c1cccnc1)C(=S)Nc1ccccc1 (centres unmarked) [Compound 29, N-hydroxy-N'-phenyl-N-[8-phenyl-8-(3-pyridyl)octyl]thiourea] | –
5 | 200 | CC(/C=C/CCCC(c1ccccc1)c1cccnc1)N(O)C(N)=O (centres unmarked) [Compound 41, N-hydroxy-N-[(E)-1-methyl-7-phenyl-7-(3-pyridyl)-2-hepten-1-yl]urea] | –
5 | 200 | O=C(NC1CCCCC1)N(O)Cc1cccc(OC(c2ccccc2)c2cccnc2)c1 (stereo not drawn) [Compound 44, N'-cyclohexyl-N-hydroxy-N-[3-[α-(3-pyridyl)benzyloxy]benzyl]urea] | –
6 | 90 | COc1cccc(NC(=O)N(O)Cc2cccc(OC(c3ccccc3)c3cccnc3)c2)c1 (stereo not drawn) [Compound 45, N-hydroxy-N'-(3-methoxyphenyl)-N-[3-[α-(3-pyridyl)benzyloxy]benzyl] urea] | –
